The source made the active and inactive calls. The calls are words filed in the database; no cut-off is given here.

The subject of test [1] is Jurkat. The test is described as follows: Increase in caspase 3 activation in Jurkat cells at 1 uM. It counts as functional, cell-based. The note with it: Homo sapiens.
Test [2] relates to Jurkat. The test is described as follows: Effect on apoptosis in Jurkat cells assessed as cleavage of procaspase 3 to active enzyme at 1 uM. It counts as functional, cell-based. The note with it: Homo sapiens.
Test [3] deals with Jurkat. The test is described as follows: Effect on apoptosis in Jurkat cells assessed as cleavage of PARP at 1 uM. It is filed as functional, cell-based. The note with it: Homo sapiens.
Test [4] deals with HeLa. Briefly: Antiproliferative activity against HeLa cells assessed as cell viability at 5 uM after 48 hrs by MTT assay relative to control. The note with it: Homo sapiens, read-out: Activity. It is filed as functional.
Test [5] can be described thus: Antiproliferative activity against human MCF7/AZ cells assessed as cell viability at 5 uM after 48 hrs by MTT assay relative to control. It counts as functional. The note with it: read-out: Activity.
In test [6] the test system is Jurkat. The test is described as follows: Antiproliferative activity against human Jurkat cells assessed as cell viability at 5 uM after 48 hrs by MTT assay. It counts as functional. The note with it: read-out: Activity.
For test [7], the system named is Jurkat. Briefly: Induction of apoptosis in Jurkat cells assessed as cell viability at 5 uM after 48 hrs by flow cytometry Annexin-V/propidium iodide assay. It is filed as functional. The note with it: Homo sapiens, read-out: Activity.
Test [8] deals with HeLa. The test is described as follows: Growth inhibition of HeLa cells after 48 hrs by MTT assay. The note with it: Homo sapiens. It is filed as functional.
In test [9] the test system is Jurkat. Briefly: Increase in caspase 3 activation in Jurkat cells at 5 uM. It counts as functional, Homo sapiens.
The test system of test [10] is Jurkat. The test is described as follows: Effect on apoptosis in Jurkat cells assessed as cleavage of procaspase 3 to active enzyme at 5 uM. It is filed as functional, cell-based. The note with it: Homo sapiens.
The subject of test [11] is Jurkat. The test is described as follows: Effect on apoptosis in Jurkat cells assessed as cleavage of PARP at 5 uM. The note with it: Homo sapiens. It counts as functional, cell-based.
The subject of test [12] is Jurkat. The test is described as follows: Effect on apoptosis in Jurkat cells assessed as DNA laddering after 24 hrs. It counts as functional, cell-based. The note with it: Homo sapiens.
Test [13] concerns Lymphocyte. The test is described as follows: Induction of apoptosis in human whole blood lymphocytes after 24 hrs by flow cytometric Annexin-V/propidium iodide assay. It counts as functional, cell-based.
Test [14] concerns Jurkat. The test is described as follows: Induction of apoptosis in Jurkat cells after 24 hrs by flow cytometric Annexin-V/propidium iodide assay. It is filed as functional, cell-based. The note with it: Homo sapiens.
For test [15], the system named is HeLa. Briefly: Antiproliferative activity against HeLa cells assessed as cell viability at 50 uM after 48 hrs by MTT assay. It is filed as functional. The note with it: Homo sapiens, read-out: Activity.
Test [16] can be described thus: Antiproliferative activity against human MCF7/AZ cells assessed as cell viability at 50 uM after 48 hrs by MTT assay. It is filed as functional. The note with it: read-out: Activity.
For test [17], the system named is Jurkat. Briefly: Antiproliferative activity against human Jurkat cells assessed as cell viability at 50 uM after 48 hrs by MTT assay. It is filed as functional. The note with it: read-out: Activity.
The subject of test [18] is Jurkat. The test is described as follows: Induction of apoptosis in Jurkat cells assessed as cell viability at 50 uM after 48 hrs by flow cytometry Annexin-V/propidium iodide assay. It is filed as functional. The note with it: Homo sapiens, read-out: Activity.
The subject of test [19] is Jurkat. The test is described as follows: Effect on apoptosis in Jurkat cells assessed as DNA laddering after 24 hrs at 1 uM. It is filed as functional, cell-based. The note with it: Homo sapiens.

In the case of `CC[C@]1(O)C[C@@H]2CN(CCc3c([nH]c4ccccc34)[C@@](C(=O)OC)(c3cc4c(cc3OC)N(C)[C@H]3[C@@](O)(C(=O)OC)[C@H](OC(C)=O)[C@]5(CC)C=CCN6CC[C@]43[C@@H]65)C2)C1`, the outcome in test [1], in [2] and in test [3] was Active.
For the molecule `COc1cc(C2C3=C(COC3=O)Nc3[nH]nc(C)c32)cc(OC)c1OC` (stereo unspecified), the viability at 5 µM in test [4] was found to be 50%; in test [5], 58%; in test [6] it was 47%; in [7] it was 55%. This molecule gave a 50% growth inhibitory concentration (GI50) in [8] of 5 µM. The molecule further gave a Fold change in test [9] of 3. Moreover, the outcome in test [10], in test [11], in test [12] and in test [14] was Active. For the same molecule, the outcome in test [13] was inactive.
Regarding `COc1cc([C@@H]2c3cc4c(cc3[C@H](O)[C@H]3COC(=O)[C@H]23)OCO4)cc(OC)c1OC` [PODOFILOX], the viability at 5 µM in test [4] is 19%; in test [5], 55%; in test [6], 18%; in test [7] it was 54%. For the same molecule, halving of growth in test [8] (GI50) required 0.02 µM. The result in [9] (Homo sapiens), in test [10], in test [11] and in [14] was Active. The outcome in test [13] was inactive.
Turning to `COc1cc([C@@H]2c3cc4c(cc3[C@@H](O[C@@H]3O[C@@H]5CO[C@@H](C)O[C@H]5[C@H](O)[C@H]3O)[C@H]3COC(=O)[C@H]23)OCO4)cc(OC)c1O` [ETOPOSIDE], the viability at 5 µM came out at 91% in test [4], 76% in test [5], 75% in test [6] and 4% in test [7]. Besides, the GI50 in test [8] was 8 µM. Moreover, the viability at 50 µM in test [15] was 15%; in test [16], 57%; in [17] it was 50%; in [18] it was 61%. Further, the result in test [19] and in test [13] was inactive. In [14], the outcome was Active.

The values are drawn from ChEMBL document CHEMBL1148830, “Discovery and investigation of antiproliferative and apoptosis-inducing properties of new heterocyclic podophyllotoxin analogues accessible by a one-step multicomponent synthesis” (2007).
